# According to patent US20240109893A1, “PREPARATION AND APPLICATION METHOD OF HETEROCYCLIC COMPOUNDS AS KRAS INHIBITOR” (SHANGHAI KECHOW PHARMA, INC., priority 2020, published 2024):
# System: H358 cells
# Test: Cell activity experiment: activity test of H358 cells (MTT, 5 days)
# Assay type: cell-based
# Details: 5 days incubation, absorbance 492 nm
# In short: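 Viability was read by MTT: 4 h dye incubation, DMSO solubilisation, absorbance at 492 nm. This followed 5 days' treatment (37° C., 5% CO2) of H358 cells, pre-grown 24 h, with eight-point 3-fold dilutions up to 10000 nM final, 0.5% DMSO final, triplicate wells.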
row,IC50,SMILES
1,1680 nM,"C=C(F)C(=O)N1CCN(c2nc(OC[C@@]34CCCN3C[C@H](F)C4)nc3c(OC4CC4)c(-c4cccc5c4CC4CC54)c(Cl)cc23)C[C@@H]1CC#N (single isomer, unassigned) [Example 919]"

# Same assay, conditions: Homo sapiens, NCI-H358, 120 h, 5 days incubation, absorbance 492 nm
row,SMILES,IC50
1,"C=CC(=O)N1CC[C@@H]2[C@H]1CN2c1nc(OC[C@@H]2CCCN2C)nc2cc(-c3cccc4cccc(Cl)c34)ccc12 [Example 85, 1-((1R,5R)-6-(7-(8-chloronaphthalen-1-yl)-2-(((S)-1-methylpyrrolidin-2-yl)methoxy)quinazolin-4-yl)-2,6-diazabicyclo[3.2.0]hept-2-yl)prop-2-en-1-one]",6 nM
2,C=CC(=O)N1CC[C@@H]2[C@H]1CN2c1nc(OCC23CCCN2CCC3)nc2c(F)c(-c3ccc(F)c4c3CCCC4)ncc12 [Example 29],10 nM
3,C=CC(=O)N1CCN(c2nc(OC[C@@]34CCCN3C[C@H](F)C4)nc3c(F)c(-c4cccc5c4C4CC4C5)ncc23)C[C@@H]1CC#N (stereo partly shown) [Example 67],0.07 nM
4,"C=CC(=O)N1CCN(c2nc(OC[C@@H]3CCCN3C)nc3c(F)c(-c4cccc5cccc(Cl)c45)c(F)cc23)C[C@@H]1CC#N [Example 430, 2-((S)-1-acryloyl-4-(6,8-difluoro-7-(8-chloronaphthalen-1-yl)-2-(((S)-1-methylpyrrolidin-2-yl)methoxy)quinazolin-4-yl)piperazin-2-yl)acetonitrile]",140 nM
5,C=C(F)C(=O)N1CCN(c2nc(OC[C@@H]3CCCN3C)nc3cc(-c4cccc5cccc(Cl)c45)ccc23)C[C@@H]1CC#N [Example 78],60 nM
6,"C=CC(=O)N1CCN(c2nc(OCC34CCCN3CCC4)nc3c(F)c(-c4cccc5cccc(Cl)c45)ccc23)C[C@@H]1CC#N [Example 364, (S)-2-(1-acryloyl-4-(7-(8-chloronaphthalen-1-yl)-8-fluoro-2-((tetrahydro-1H-pyrrolizin-7a(5H)-yl)methoxy)quinazolin-4-yl)piperazin-2-yl)acetonitrile]",2 nM
7,C=CC(=O)N1CCN(c2nc(OCC34CCCN3C[C@H](F)C4)nc3cc(-c4cccc5c4CCCC5)ccc23)C[C@@H]1CC#N (stereo partly shown) [Example 116],15 nM

# Further lines, results first:
row,IC50,SMILES
1,10 nM,C=CC(=O)N1CCN(c2nc(OC[C@@]34CCCN3C[C@H](F)C4)nc3nc(-c4cccc5cccc(Cl)c45)ccc23)C[C@@H]1CC#N [Example 260]
2,70 nM,"C=CC(=O)N1CCN(c2nc(OC[C@@H]3CCCN3C)nc3c(F)c(-c4cccc5c4CC(C)C5)ncc23)C[C@@H]1CC#N (stereo partly drawn) [Example 60, 2-((2S)-1-acryloyl-4-(8-fluoro-7-(2-methyl-2,3-dihydro-1H-inden-4-yl)-2-(((S)-1-methylpyrrolidin-2-yl)methoxy)pyridino[4,3-d]pyrimidin-4-yl)piperazin-2-yl)acetonitrile]"
3,30 nM,"C=C(F)C(=O)N1CC[C@@H]2[C@H]1CN2c1nc(OCC23CCCN2CCC3)nc2c(F)c(-c3cncc4c3CCCC4)ncc12 [Example 46, 2-fluoro-1-(((1R,5R)-6-(8-fluoro-2-((tetrahydro-1H-pyrrolizin-7a(5H)-yl)methoxy))-7-(5,6,7,8-tetrahydroisoquinolin-4-yl)pyridino[4,3-d]pyrimidin-4-yl)-2,6-diazabicyclo[3.2.0]hept-2-yl)prop-2-en-1-one]"
4,86 nM,"C=CC(=O)N1CCN(c2nc(OC[C@@H]3CCCN3C)nc3cc(-c4cccc5c4CCCC5)c(Cl)cc23)C[C@@H]1CC#N [Example 75, 2-((S)-1-acryloyl-4-(6-chloro-2-(((S)-1-methylpyrrolidin-2-yl)methoxy)-7-(5,6,7,8-tetrahydronaphthalen-1-yl)quinazolin-4-yl)piperazin-2-yl)acetonitrile]"
5,155 nM,C=C(F)C(=O)N1CCN(c2nc(OC[C@@H]3CCCN3C)nc3c(F)c(-c4cccc5c4CC4CC54)c(O)cc23)C[C@@H]1CC#N (stereo partly shown) [Example 945]
